In the supplement of paper PMC11451515:

System: P12-Ichikawa
Assay: cell viability relative to DMSO control; higher = less cytotoxic
Details: 48 h
Method in brief: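 Viability is expressed as a percentage of DMSO wells within each plate, and cell-free wells serve as background. Seeding densities in the 1536-well plates (5 μl) were 500 cells/well for NOMO1 or SEM leukemia cells and 1000 cells/well for P12-Ichikawa. Each line was adapted for at least four passages in each medium. Library compounds in DMSO were pin-dosed at 47 μM to 0.79 nM (11 points, threefold), and CellTiter-Glo One luminescence was read after 48 h at 37°C.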

[1] = HPLM + 10% dialyzed FBS, 0.000781 µM
[2] = HPLM + 10% dialyzed FBS, 0.00234 µM
[3] = HPLM + 10% dialyzed FBS, 0.00702 µM
[4] = HPLM + 10% dialyzed FBS, 0.0211 µM
[5] = HPLM + 10% dialyzed FBS, 0.0632 µM
[6] = HPLM + 10% dialyzed FBS, 0.19 µM
[7] = HPLM + 10% dialyzed FBS, 0.569 µM
[8] = HPLM + 10% dialyzed FBS, 1.71 µM
[9] = HPLM + 10% dialyzed FBS, 5.12 µM
[10] = HPLM + 10% dialyzed FBS, 15.4 µM
[11] = HPLM + 10% dialyzed FBS, 46.1 µM
[12] = RPMI 5 mM glucose + 10% FBS, 0.000781 µM
[13] = RPMI 5 mM glucose + 10% FBS, 0.00234 µM
[14] = RPMI 5 mM glucose + 10% FBS, 0.00702 µM
[15] = RPMI 5 mM glucose + 10% FBS, 0.0211 µM
[16] = RPMI 5 mM glucose + 10% FBS, 0.0632 µM
[17] = RPMI 5 mM glucose + 10% FBS, 0.19 µM
[18] = RPMI 5 mM glucose + 10% FBS, 0.569 µM
[19] = RPMI 5 mM glucose + 10% FBS, 1.71 µM
[20] = RPMI 5 mM glucose + 10% FBS, 5.12 µM
[21] = RPMI 5 mM glucose + 10% FBS, 15.4 µM
[22] = RPMI 5 mM glucose + 10% FBS, 46.1 µM
[23] = RPMI 5 mM glucose + 10% dialyzed FBS, 0.000781 µM
[24] = RPMI 5 mM glucose + 10% dialyzed FBS, 0.00234 µM
[25] = RPMI 5 mM glucose + 10% dialyzed FBS, 0.00702 µM
[26] = RPMI 5 mM glucose + 10% dialyzed FBS, 0.0211 µM
[27] = RPMI 5 mM glucose + 10% dialyzed FBS, 0.0632 µM
[28] = RPMI 5 mM glucose + 10% dialyzed FBS, 0.19 µM
[29] = RPMI 5 mM glucose + 10% dialyzed FBS, 0.569 µM
[30] = RPMI 5 mM glucose + 10% dialyzed FBS, 1.71 µM
[31] = RPMI 5 mM glucose + 10% dialyzed FBS, 5.12 µM
[32] = RPMI 5 mM glucose + 10% dialyzed FBS, 15.4 µM
[33] = RPMI 5 mM glucose + 10% dialyzed FBS, 46.1 µM

Row | SMILES | cell viability [1] | cell viability [2] | cell viability [3] | cell viability [4] | cell viability [5] | cell viability [6] | cell viability [7] | cell viability [8] | cell viability [9] | cell viability [10] | cell viability [11] | cell viability [12] | cell viability [13] | cell viability [14] | cell viability [15] | cell viability [16] | cell viability [17] | cell viability [18] | cell viability [19] | cell viability [20] | cell viability [21] | cell viability [22] | cell viability [23] | cell viability [24] | cell viability [25] | cell viability [26] | cell viability [27] | cell viability [28] | cell viability [29] | cell viability [30] | cell viability [31] | cell viability [32] | cell viability [33]
1 | CC(C)C[C@H](CN)CC(=O)O | 111% | 106% | 106% | 109% | 106% | 103% | 101% | 102% | 95.7% | 94.2% | 93% | 99.4% | 105% | 102% | 96.2% | 101% | 99.3% | 93.6% | 96.1% | 92.3% | 91.5% | 95.6% | 103% | 102% | 107% | 106% | 97.1% | 96% | 98.9% | 96.6% | 95.7% | 97.9% | 98.4%
2 | CC(C)(C)OC(=O)CN(Cc1ccc(Cl)cc1)Cc1ccc([N+](=O)[O-])s1 | 99.7% | 107% | 107% | 101% | 99% | 98.3% | 96.2% | 96.5% | 91.6% | 93% | 73.6% | 92.8% | 99.2% | 89% | 97.1% | 88.2% | 99.2% | 93.3% | 99.9% | 92.8% | 88.9% | 69.3% | 99% | 90.7% | 95.9% | 92% | 94.9% | 92% | 87.9% | 86.6% | 82.4% | 91.2% | 62.6%
